Measured values from patent publication US9126060B2, “Cosmetic use of geranylgeranyl-2-propanol” (SEDERMA, priority 2010, dated 2015).

Assays:
human melanocytes = assay: Melanin content of human melanocytes; assay type: cell-based; details: 0.03%; positive control
Experimental: (§1) Principle: Human melanocytes are seeded and placed in contact with the GGP for 5 days. After incubation, the residual tyrosinase activity and total melanin content were measured in cell homogenates, and then divided by the number of cells (melanin) or to the protein amount (tyrosinase).

tyrosinase = biological target: T1, tyrosinase (Homo sapiens, UniProt P14679); assay: Residual tyrosinase activity in human melanocytes; assay type: cell-based; details: 0.03%; positive control
T1 construct: endogenous in cells; host or cells: human melanocytes
T1 sequence (P14679 19-529): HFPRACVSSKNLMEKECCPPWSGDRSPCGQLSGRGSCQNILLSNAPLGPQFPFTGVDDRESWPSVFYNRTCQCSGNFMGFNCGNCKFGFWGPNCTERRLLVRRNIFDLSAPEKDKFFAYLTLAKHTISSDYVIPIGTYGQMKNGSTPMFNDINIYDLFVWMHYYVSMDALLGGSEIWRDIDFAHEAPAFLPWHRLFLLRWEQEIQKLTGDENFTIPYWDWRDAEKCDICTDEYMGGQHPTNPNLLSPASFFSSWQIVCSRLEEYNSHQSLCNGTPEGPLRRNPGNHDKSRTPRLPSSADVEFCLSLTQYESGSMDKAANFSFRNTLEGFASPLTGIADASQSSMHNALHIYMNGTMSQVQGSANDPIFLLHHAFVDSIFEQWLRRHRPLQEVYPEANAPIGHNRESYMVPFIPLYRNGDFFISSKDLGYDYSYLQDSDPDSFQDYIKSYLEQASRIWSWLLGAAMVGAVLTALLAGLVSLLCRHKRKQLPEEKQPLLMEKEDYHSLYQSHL
Experimental: as §1

fibroblasts (FHN) = assay: Intracellular peroxide level (DCFH-DA probe) in fibroblasts after SIPS; assay type: cell-based, human; details: 120 ppm
Experimental: Principle: Fibroblasts at confluence contacted or not with the GGP for several days, are subjected to oxidative stress by hydrogen peroxide in the presence or absence of the GGP. This stress is intended to induce premature senescence in cells.
After this initial stress, the cells were detached from the support and returned to culture at low density until confluence. They are then contacted or not with the compound of the invention for 24 hours. At this stage, each set of cultures (with or without the tested compounds) is divided into 2 lots. A first batch (not stressed) is evaluated directly for its concentration of intracellular peroxides (using the probe DCFH-DA). Simultaneously, the other batch (stressed) undergoes a second stress by hydrogen peroxide (weaker than the first) just before being evaluated in the same way regarding the concentration of intracellular peroxides.
The amount of fluorescence measured with this probe is directly proportional to the amount of peroxides present in the cells.

presenescent fibroblasts = assay: Mitochondrial membrane potential of presenescent fibroblasts (dye ratio λ520/λ590); assay type: cell-based; details: 120 ppm
Source text: It is possible to measure the membrane potential through a specific membrane dye. Depending on the level of the membrane potential, this dye is rather present as monomer (emission fluorescence at 520 nm) or rather in the multimetric form (fluorescence emission at 590 nm). High membrane potential promotes a multimetric form.
The ratio λ520/λ590 varies inversely with the membrane potential. The lower the ratio is, the higher the membrane potential is. The increase in the ratio thus reflects a decrease in membrane potential. The ratio λ520/λ590 for young and proliferating cells is 2.97+/−0.17.
[…] After this period, the membrane potential of half of the cultures was measured.
The other half of the cultures underwent an oxidative stress (hydrogen peroxide) before measuring their membrane potential.

[1] = ORAC test (Oxygen-Radical Absorbance Capacity): fluorescein degradation by peroxyl radicals; assay type: biochemical; details: positive control, 10μ
Source text: Principle: the ORAC test (“Oxygen-Radical Absorbance Capacity”) measures degradation by the oxidative way of a fluorescent molecule (fluorescein). Degradation of fluorescein by peroxyl radicals generated by AAPH (2,2′-azobis (2-amidinopropane) dichloride) induces a decrease in fluorescence measured by a spectrofluorometer during a degradation kinetic.
An antioxidant protects this fluorescein against this radical degradation. The decrease in fluorescence will be smaller and slower in the presence of the antioxidant than in its absence. The comparison between the parameters of the two kinetics makes it possible to calculate a percentage of protection against free radical degradation.

human dermal fibroblasts = assay: Senescence associated β-galactosidase activity in fibroblasts after oxidising stress (FDG fluorimetry); assay type: cell-based; details: 120 ppm; positive control
Experimental: Principle: Proliferative human dermal fibroblasts were contacted or not with the GGP for 72 hours in a growth medium. After this first incubation, the cells were subjected for 5 days to an oxidative stress daily, one hour each, in a basic medium, common to all cultures. This stress is known to create a SIPS and to induce a strong increase in β-galactosidase activity in the stressed culture compared to an unstressed culture. Between two stress cells are returned to the growth medium with or without the substance tested. After the fifth stress, β-galactosidase activity is evaluated.
Evaluation of β-galactosidase activity is done after fixing the layers. They are put in contact with a substrate of β-galactosidase nonfluorescent FDG (fluorescein di-β-galactopyranoside), which will release a fluorescent compound upon hydrolysis by β-galactosidase. The emitted fluorescence is quantified in a fluorometer. It will increase with the amount of senescent cells present in culture. The relative activity of β-galactosidase thus found is 2974+/−957 UFA/million cells in a proliferative culture and increases by a factor 5 (p<0.01) in a culture little to not proliferative.

collagen I = assay: Collagen I synthesis in presenescent fibroblasts (immunofluorescence, image analysis); assay type: cell-based, human; details: 10^−6%; positive control
Experimental: Principle: The collagen I synthesis was monitored in pre-senescent human dermal fibroblasts. These cells were cultured for 11 days with the GGP in a growth medium. Following this incubation, the cell layers were fixed and labeled by immunofluorescence, to visualize the network of collagen I and to quantify by image analysis on photographs. In parallel, quantification was performed on proliferating cells.

hyaluronic acid = assay: Hyaluronic acid synthesis in human fibroblasts; assay type: cell-based; details: 10^−6%; positive control
Experimental: Principle: Human dermal fibroblasts were grown in plate for 24 hours. The cells are then placed in contact or not with GGP for 24 hours. Culture supernatants were collected and assayed for the amount of hyaluronic acid (HA) is then divided by the number of cells present on the layer. TGF-β1 is used as a positive control.

[2] = SIPS fibroblasts subjected to a second oxidant stress

In the case of OC[C@H]1O[C@@H](Oc2ccc(O)cc2)[C@H](O)[C@@H](O)[C@@H]1O [Arbutine, reference compound], the “Change (%) of melanin content vs control” value (human melanocytes) was −40% and the “Change (%) of tyrosinase activity vs control” value (tyrosinase) was −33%.
In the case of Cc1c(C)c2c(c(C)c1O)CCC(C)(C(=O)O)O2 (stereo not drawn) [Trolox, reference compound], the “% Change/Control of endogen peroxides” value (fibroblasts (FHN); [2]) was −85%; p < 0.01, the Endogen peroxides (fibroblasts (FHN); [2]) was 158 +/− 7 UFA/million of cells and the “% Change/Control of endogen peroxides” value (fibroblasts (FHN); after SIPS, not stressed again) was −43%; p < 0.01. The Endogen peroxides (fibroblasts (FHN); after SIPS, not stressed again) was 57.5 +/− 3.8 UFA/million of cells, the “% of protection of the respiration potential” value (presenescent fibroblasts; no stress) was “+44%; nsd” and the “ΔΨ loss with regard to non stressed young cells” value (presenescent fibroblasts; one week, no stress) was 0.80 +/− 0.52. For the same compound, the “Improvement of the respiration potential” value (presenescent fibroblasts; with oxidative stress) was “+43%; p < 0.05”, the “ΔΨ loss with regard to non stressed young cells” value (presenescent fibroblasts; with oxidative stress (hydrogen peroxide)) was 3.18 +/− 1.16 and the “Change with regard to non stressed young cells” value (presenescent fibroblasts; with oxidative stress, control −100%) was −57%. The “% of protection” value [1] was “Positive control = Trolox 10μ = 94% (p < 0.01)” and the “Change with regard to control (β-galactosidase)” value (human dermal fibroblasts) was “Positive control: Trolox 120 ppm = −45% (p < 0.05)”.
In the case of “TGF-β: TGF-β1 is used as a positive control [reference compound]”, the “collagen I synthesis, factor vs control” value (collagen I) was “Positive control: TGF-β at 10^−6%: ×8.3 times” and the “% of change of hyaluronic acid vs control” value (hyaluronic acid) was “Positive control: TGF-β1 à 10^−6%: +206% (p < 0.01)”.
